From paper PMC4815073, “Targeting of tubulin polymerization and induction of mitotic blockage by Methyl 2-(5-fluoro-2-hydroxyphenyl)-1H-benzo[d]imidazole-5-carboxylate (MBIC) in human cervical cancer HeLa cell” (Journal of Experimental & Clinical Cancer Research : CR, 2016)

How the values were obtained:
A549 cells = assay: MTT cytotoxicity assay, A549; type: cell-based, human; settings: for IC50: MTT
Excerpt: (§1) The human cervical cancer cell-line, HeLa (CCL-2.2; ATCC, Manassas, VA), HCT-116 (CCL-247; ATCC, Manassas, VA), A549 (CCL-185; ATCC, Manassas, VA), HepG-2 (HB-8065; ATCC, Manassas, VA) and WRL-68 (CL-48; ATCC, Manassas, VA), were obtained from American Type Culture Collection (ATCC). HeLa, A549, HepG2 and WRL68 cells were maintained in Dulbecco’s Modified Eagle Medium (DMEM, Life Technologies, Inc, Rockville, MD). HCT-116 was obtained in McCoy’s 5a Medium Modified (Life Technologies, Inc, Rockville, MD) supplemented with 10 % fetal bovine serum and 1 % penicillin/streptomycin. Cells were incubated at 37 °C in a humidified cell culture 5 % CO2 incubator. Cells were passaged until reaching 70-80-% confluency for experimental purposes.
(§2) Cytotoxicity of MBIC was estimated by MTT assay. Briefly, 1 × 10^4 cells/well were seeded in a 96-well plate and incubated at 37 °C in 5 % CO2. After 24 h, cells were treated with different concentrations (0.02, 0.04, 0.1, 0.2, 0.4, 0.8, 1.5, 3, 6, 12, 25, 50 μM) of MBIC. 0.01 % DMSO was used as vehicle control. Cells were incubated for 24 and 48 h at 37 °C. Subsequently, 50 μl/well of 3-(4,5-dimethylthiazol-2-yl)-2,5-diphenyltetrazolium bromide (MTT, 2 mg/ml) was added and incubated for 2 h. After the incubation, the media was discarded and 100 μl DMSO was replaced into each well to dissolve the formazan crystal. The colorimetric assay was quantified at 570 nm wavelength using Chameleon V microplate reader (Hidex, Turku, Finland). The anti-proliferation activity of MBIC was expressed as an IC50 value. The percentage of cell viability was calculated as described previously.

WRL-68 cells = assay: MTT cytotoxicity assay, WRL-68 normal liver cells; type: cell-based, human
Excerpt: as §1, §2

HCT-116 cells = assay: MTT cytotoxicity assay, HCT-116; type: cell-based, human; settings: for IC50: MTT
Excerpt: as §1, §2

HeLa cells [1] = assay: Drug combination assay (MTT, Chou-Talalay, CampuSyn); type: cell-based; settings: Homo sapiens, 24 h, drug alone, read-out: (Dm)IC50 Drug 1 (conventional drug alone)
Method: In order to discover the synergistic effects of MBIC with conventional drugs briefly, cells were seeded in 1 × 10^4 cells/well and were incubated at 37 °C overnight. […] Also, the MBIC, combined with each of the selected conventional drugs in a 1:1 ratio, were diluted in concentration from 50 μM to 0.1 μM. Cell viability assay (MTT assay) was performed 24 h post-treatment and absorbance were measured in a microplate reader to find out the IC50 for each conventional drug alone and in combination with MBIC on HeLa cells. For this analysis, we used the commercial software package CampuSyn (Biosoft, Cambridge, United Kingdom; Ref.9). […] Furthermore, the software produced an automated isobologram and fraction affected-combination index (Fa-CI) plot.

HeLa cells [2] = assay: MTT cytotoxicity assay, HeLa; type: cell-based, human; settings: for IC50: HeLa, MTT; for SI (Selectivity Index): IC50 WRL-68 / IC50 HeLa
Excerpt: as §1, §2

HepG-2 cells = assay: MTT cytotoxicity assay, HepG-2; type: cell-based, human; settings: for IC50: MTT
Excerpt: as §1, §2

tubulin = target: T1, tubulin (Sus scrofa, UniProt P02550+P02554); assay: Tubulin polymerization assay; type: biochemical; settings: 10 μM drug, 3 mg/ml tubulin, 37 °C, 340 nm; untreated 12 mOD/min
T1 construct: purchased Cytoskeleton BK011P
Method: To investigate the effect of MBIC on tubulin polymerization, a fluorescence-based tubulin polymerization assay kit (Cytoskeleton-Cat. # BK011P) was used according to the manufacturer’s protocol. Briefly, 200 μl of pure tubulin protein was re-suspended in 420 μl of ice cold Tubulin Polymerization Buffer (TPB) to give a final concentration of 3 mg/ml tubulin, supplemented with 80 mM PIPES, 2 mM MgCl2, 0.5 mM EGTA, 1 mM GTP, 20 % (v/v) glycerol. 100 μl of tubulin reaction mixture were added to each well in a 96-well plate containing the selected concentration of MBIC (10 μM). […] Samples were mixed well and the tubulin assembly was monitored by an increase in fluorescence emission at 340 nm in kinetic mode for 120 min at 37 °C using a plate reader (Infinite® 200 PRO—Tecan plate reader, USA).

[3] = system: HeLa cells expressing EGFP-α-tubulin, EGFP-CENP-A and histone H2B-mCherry; assay: Live-cell imaging of mitotic spindle; type: cell-based, human; settings: MBIC 10 μM, nocodazole 2 μM; imaged at 15 min intervals
Method: HeLa cells expressing EGFP-α-tubulin, EGFP-CENP-A and histone H2B-mCherry were grown in glass chambers (Thermo Scientific, USA). Thirty minutes before imaging, the medium was changed to pre-warmed Leibovitz’s L-15 medium (Life Technologies) supplemented with 20 % fetal bovine serum and 20 mM HEPES, pH 7.0. Recordings were made in a temperature-controlled incubator at 37 °C. Images were collected with an Olympus IX-71 inverted microscope (Olympus) controlled by DeltaVision softWoRx (Applied Precision) using a 20x 0.75 NA UPlan SApochromat objective lens (Olympus). Z-series of six sections in 3 μm increments were captured every 15 min. Image stacks were projected.

[4] = IC50 WRL-68 / IC50 A549, 24 hours
[5] = IC50 WRL-68 / IC50 A549, 48 hours
[6] = Homo sapiens, HCT-116, 24 hours
[7] = Homo sapiens, HCT-116, 48 hours
[8] = IC50 WRL-68 / IC50 HCT-116, 24 hours
[9] = IC50 WRL-68 / IC50 HCT-116, 48 hours
[10] = Homo sapiens, HepG2, HepG-2, 24 hours
[11] = Homo sapiens, HepG2, HepG-2, 48 hours
[12] = IC50 WRL-68 / IC50 HepG-2, 24 hours
[13] = IC50 WRL-68 / IC50 HepG-2, 48 hours

T1 sequence (P02550 whole entry): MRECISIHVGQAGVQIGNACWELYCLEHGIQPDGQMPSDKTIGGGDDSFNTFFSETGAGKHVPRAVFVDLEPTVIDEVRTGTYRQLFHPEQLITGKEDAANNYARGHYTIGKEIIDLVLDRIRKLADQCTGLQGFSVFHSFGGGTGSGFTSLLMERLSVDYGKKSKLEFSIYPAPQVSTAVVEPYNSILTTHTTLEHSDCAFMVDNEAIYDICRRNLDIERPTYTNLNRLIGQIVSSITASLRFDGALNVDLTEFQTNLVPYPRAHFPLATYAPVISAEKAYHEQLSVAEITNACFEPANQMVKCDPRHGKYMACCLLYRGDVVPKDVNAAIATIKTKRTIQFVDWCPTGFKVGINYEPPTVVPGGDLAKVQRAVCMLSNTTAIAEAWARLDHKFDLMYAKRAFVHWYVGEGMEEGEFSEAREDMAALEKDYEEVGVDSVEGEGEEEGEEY
T1 sequence (P02554 whole entry): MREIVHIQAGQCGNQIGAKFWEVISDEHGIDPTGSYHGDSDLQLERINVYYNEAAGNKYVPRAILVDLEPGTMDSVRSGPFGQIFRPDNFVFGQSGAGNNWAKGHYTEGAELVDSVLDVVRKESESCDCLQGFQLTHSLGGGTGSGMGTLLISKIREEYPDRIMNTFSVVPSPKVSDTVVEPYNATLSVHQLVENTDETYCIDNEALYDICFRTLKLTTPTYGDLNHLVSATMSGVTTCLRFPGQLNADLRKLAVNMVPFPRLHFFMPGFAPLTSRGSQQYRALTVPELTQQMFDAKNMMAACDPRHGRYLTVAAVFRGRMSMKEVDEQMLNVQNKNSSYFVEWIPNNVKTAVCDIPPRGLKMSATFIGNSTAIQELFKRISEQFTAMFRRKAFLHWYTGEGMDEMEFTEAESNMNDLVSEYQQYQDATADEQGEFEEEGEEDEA

IC50 (HeLa cells [1])	Compound	IC50 (A549 cells; Homo sapiens, A549, 24 hours)	IC50 (A549 cells; Homo sapiens, A549, 48 hours)	SI (Selectivity Index) (A549 cells; [4])	SI (Selectivity Index) (A549 cells; [5])	IC50 (WRL-68 cells; Homo sapiens, WRL68, 24 hours)	IC50 (WRL-68 cells; Homo sapiens, WRL68, 48 hours)	IC50 (HCT-116 cells; [6])	IC50 (HCT-116 cells; [7])	SI (Selectivity Index) (HCT-116 cells; [8])	SI (Selectivity Index) (HCT-116 cells; [9])	IC50 (HeLa cells [2]; Homo sapiens, 24 hours)	IC50 (HeLa cells [2]; Homo sapiens, 48 hours)	SI (Selectivity Index) (HeLa cells [2]; 24 hours)	SI (Selectivity Index) (HeLa cells [2]; 48 hours)	IC50 (HepG-2 cells; [10])	IC50 (HepG-2 cells; [11])	SI (Selectivity Index) (HepG-2 cells; [12])	SI (Selectivity Index) (HepG-2 cells; [13])	Tubulin polymerization maximal velocity (Vmax) (tubulin)	further results
1.02 ± 0.6 µM	CC(=O)O[C@H]1C(=O)[C@@]2(C)[C@H]([C@H](OC(=O)c3ccccc3)[C@]3(O)C[C@H](OC(=O)[C@H](O)[C@@H](NC(=O)c4ccccc4)c4ccccc4)C(C)=C1C3(C)C)[C@]1(OC(C)=O)CO[C@@H]1C[C@@H]2O [Paclitaxel]	2.83 ± 0.11 µM	1.23 ± 0.09 µM	2.37	2.77	6.71 ± 0.2 µM	3.41 ± 0.8 µM	3.09 ± 0.5 µM	1.09 ± 0.4 µM	2.17	3.12	1.02 ± 0.01 µM	0.57 ± 0.03 µM	6.57	5.98	2.81 ± 0.72 µM	1.03 ± 0.07 µM	2.38	3.31	33 mOD/min	–
0.46 ± 0.7 µM	COc1cccc2c1C(=O)c1c(O)c3c(c(O)c1C2=O)C[C@@](O)(C(=O)CO)C[C@@H]3O[C@H]1C[C@H](N)[C@H](O)[C@H](C)O1 [Doxorubicin]	0.35 ± 0.07 µM	0.09 ± 0.01 µM	10.17	18.66	3.56 ± 0.9 µM	1.68 ± 0.09 µM	0.91 ± 0.2 µM	0.47 ± 0.3 µM	3.91	3.57	0.46 ± 0.04 µM	0.29 ± 0.04 µM	7.73	5.79	8.04 ± 0.8 µM	3.94 ± 0.07 µM	0.44	0.42	–	–
–	N.N.[Cl][Pt][Cl] [Cisplatin]	–	–	0.54	0.54	–	–	–	–	2.57	2.56	–	–	1.23	1.17	–	–	1.80	1.78	–	IC50 (A549 cells; A549, 24 hours): 34 ± 0.9 µM; IC50 (A549 cells; A549, 48 hours): 19.5 ± 1.4 µM; IC50 (WRL-68 cells; 24 hours): 18.6 ± 1.4 µM; IC50 (WRL-68 cells; 48 hours): 10.6 ± 0.7 µM; IC50 (HCT-116 cells; HCT-116, 24 hours): 7.22 ± 0.5 µM; IC50 (HCT-116 cells; HCT-116, 48 hours): 4.12 ± 0.6 µM; IC50 (HeLa cells [2]; 24 hours): 15.07 ± 0.03 µM; IC50 (HeLa cells [2]; 48 hours): 9.02 ± 0.02 µM; IC50 (HepG-2 cells; HepG-2, 24 hours): 10.3 ± 0.5 µM; IC50 (HepG-2 cells; HepG-2, 48 hours): 5.93 ± 0.2 µM

Compound	IC50 (HeLa cells [1])	IC50 (A549 cells; Homo sapiens, A549, 24 hours)	IC50 (A549 cells; Homo sapiens, A549, 48 hours)	SI (Selectivity Index) (A549 cells; [4])	SI (Selectivity Index) (A549 cells; [5])	IC50 (WRL-68 cells; Homo sapiens, WRL68, 24 hours)	IC50 (WRL-68 cells; Homo sapiens, WRL68, 48 hours)	IC50 (HCT-116 cells; [6])	IC50 (HCT-116 cells; [7])	SI (Selectivity Index) (HCT-116 cells; [8])	SI (Selectivity Index) (HCT-116 cells; [9])	IC50 (HeLa cells [2]; Homo sapiens, 24 hours)	IC50 (HeLa cells [2]; Homo sapiens, 48 hours)	SI (Selectivity Index) (HeLa cells [2]; 24 hours)	SI (Selectivity Index) (HeLa cells [2]; 48 hours)	IC50 (HepG-2 cells; [10])	IC50 (HepG-2 cells; [11])	SI (Selectivity Index) (HepG-2 cells; [12])	SI (Selectivity Index) (HepG-2 cells; [13])	Tubulin polymerization maximal velocity (Vmax) (tubulin)	further results
COC(=O)Nc1nc2ccc(C(=O)c3cccs3)cc2[nH]1 [Nocodazole]	3.08 ± 0.5 µM	12.2 ± 0.2 µM	5.09 ± 0.5 µM	1.00	1.48	12.2 ± 0.9 µM	7.56 ± 0.3 µM	3.81 ± 0.6 µM	1.81 ± 0.3 µM	3.20	4.17	3.08 ± 0.02 µM	2.22 ± 0.04 µM	3.97	3.40	10.7 ± 0.5 µM	5.08 ± 0.3 µM	1.14	1.48	3 mOD/min	mitotic spindle formation in live-cell imaging [3]: did not form the spindle
